In brackets after ≈: the same amount, converted by molar mass. Several values for one entry are separate records, joined by “and”; a condition that tells them apart may be missing. Equal entries are not always repeated. Where two headings read alike, the source gives them in different places.
Columns and labels:
E. coli (ATCC BAA-196) = experiment: Antibacterial assay against multi-drug resistant strains (MIC/MBC); format: cell-based, Escherichia coli; conditions: for MBC: ATCCBAA196
E. coli DNA gyrase = E. coli DNA gyrase (Escherichia coli, UniProt P0AES6); experiment: E. coli DNA gyrase supercoiling inhibitory assay; format: biochemical
Method: The fluorescence was measured with a microplate reader (BioTek Synergy H4,
NaCl and 50 mM MgCl2) was added to terminate the enzymatic reaction. After
Initial screening was done at 100 or 10 μM concentration

B. subtilis = experiment: MIC/MBC assay, twofold serial dilution; format: cell-based, Bacillus subtilis
Method: (§1) The results of this in vitro assay test are consistent with the findings of the antimicrobial sensitivity test. […] It has lower antimicrobial activity than ciprofloxacin against all pathogens tested.
(§2) The MBC differs from the MIC. […]
(§3) 4.2.2. Minimum inhibitory concentration assay
(§4) In 96-well microtiter plates and […] of fresh bacterial culture of a single McFarland unit overnight, a double serial dilution of each compound […] in sterile standard saline were prepared to every single source well. Ciprofloxacin antibiotic (5 mg / mL - 1) and normal saline were included as standard reference in each assay. The plates were incubated at 37 0C overnight. As an indicator of bacterial growth, […] of p-iodonitrotetrazolium violet (INT) was added to each well and incubated at 37 0C for 30 […]
(§5) min. MIC values are recorded as the lowest concentration of the extract that completely inhibited bacterial growth that is clear well. The colorless tetrazolidium salt acts as an electron accepter and is reduced to a red colored formazan product by biological activity organisms. Where bacterial growth was inhibited, the solution in the well remained clear after incubation with INT. […]

S. aureus = experiment: MIC/MBC assay, twofold serial dilution; format: cell-based, Staphylococcus aureus
Method: as §1, §2, §3, §4, §5

[1] = Cell viability assay (MTT); format: cell-based; conditions: human, MCF-10A, 4-day incubation
Method: The vitality of the investigated compounds was assessed using the MCF-10A cell line, which is a normal human mammary gland epithelial cell line. Following a 4-day incubation period on MCF-10A cells with a concentration of 50 µM for each compound being studied, the viability of the cells was assessed using the MTT test ([Hisham et al., 2022]; [Mahmoud et al., 2022]).
4.2.3. Cell Viability assay
MTT assay was carried out to study the effect of compounds on mammary epithelial cells (MCF-10A). The medium in which cells were propagated contained Dulbecco's modified Eagle's medium (DMEM)/ Ham's F-12 medium (1:1) supplemented with epidermal growth factor (20 ng/mL), hydrocortisone (500 ng/mL), insulin (10 μg/mL), 2 mM glutamine and 10% fetal calf serum. After every 2-3 days, the cells were passaged using trypsin ethylenediamine tetra acetic acid (EDTA). The cells were seeded at a density of 10^4 cells mL-1 in flat-bottomed culture plates containing 96 wells each. After 24 h, medium was removed from the plates and the compounds in (in 0.1% DMSO) were added (in 200 μL medium to yield a final concentration of 0.1% v/v) to the wells of plates. A single compound was designated with four wells followed by incubation of plates for 96h at 37°C. After incubation, medium was removed completely from the plates followed by addition of MTT (0.4 mg/mL in medium) to each well and subsequent incubation of plates for 3h. MTT (along with the medium) was removed and DMSO (150μL) was added to each well of the culture plates, followed by vortexing and subsequent measurement of absorbance (at 540 nm) using microplate reader. The data are shown as percentage inhibition of proliferation in comparison with controls

C. albicans = experiment: Antifungal assay (MIC/MFC), twofold serial dilution
[2] = system: S. aureus (ATCC 43300) (MRSA); experiment: Antibacterial assay against multi-drug resistant strains (MIC/MBC); format: cell-based, Staphylococcus aureus; conditions: S. aureus ATCC 43300 (MRSA); for MBC: read-out: MBC
[3] = system: P. aeruginosa (ATCC BAA-2111); experiment: as above; format: cell-based, Pseudomonas aeruginosa; conditions: for MBC: ATCCBAA2111
Gram-positive bacteria = experiment: MBC assay, Gram-positive bacteria together; format: cell-based; conditions: Gram-positive bacteria (B. subtilis, S. aureus)
Text: The MBC differs from the MIC.

DHFR E. Coli = DHFR E. Coli (Escherichia coli, UniProt P0ABQ4); experiment: DHFR inhibitory assay; format: biochemical
E. coli = experiment: MIC/MBC assay, twofold serial dilution; format: cell-based, Escherichia coli; conditions: Escherichia coli
Method: as §1, §2, §3, §4, §5

A. flavus = experiment: Antifungal assay (MIC/MFC), twofold serial dilution; conditions: for MIC: A. flavus
[4] = system: MDRB (multi-drug resistant bacteria); experiment: MIC/MBC against the MDRB panel as a whole; conditions: for MBC: read-out: MBC values; for MIC: read-out: MIC values
Text: Norfloxacin, a broad-spectrum antibiotic, worked as positive control.

P. aeruginosa = experiment: MIC/MBC assay, twofold serial dilution; format: cell-based, Pseudomonas aeruginosa
Method: as §1, §2, §3, §4, §5

S. aureus DNA gyrase = target: S. aureus DNA gyrase; parameters: method as in Alzahrani et al., 2022; conditions: ref Alzahrani et al., 2022; read-out: S. aureus DNA gyrase inhibitor IC50; cited from earlier work
[5] = Escherichia coli, ATCCBAA196, read-out: MIC
[6] = Staphylococcus aureus, read-out: MIC
[7] = Pseudomonas aeruginosa, ATCCBAA2111, read-out: MIC

Sequence of DHFR E. Coli (P0ABQ4 whole entry): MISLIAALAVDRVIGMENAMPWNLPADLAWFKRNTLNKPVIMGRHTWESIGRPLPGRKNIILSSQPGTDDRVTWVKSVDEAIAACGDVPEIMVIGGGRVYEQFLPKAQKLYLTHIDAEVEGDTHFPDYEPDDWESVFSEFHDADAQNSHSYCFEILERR

Question: What does the source list for O=C1Nc2ccc([N+](=O)[O-])cc2/C1=N/NC(=O)c1cc(Cc2ccc(O)c(C(=O)N/N=C3\C(=O)Nc4ccc([N+](=O)[O-])cc43)c2)ccc1O [Compound 6l]?
Answer: MBC (E. coli (ATCC BAA-196); Escherichia coli): 4.8 ± 0.2 µM (≈ 3.19 µg/mL); MIC (E. coli (ATCC BAA-196); [5]): 2.7 ± 0.1 µM (≈ 1.79 µg/mL); IC50 (E. coli DNA gyrase): 87 ± 6 nM; Potency relative to novobiocin against DNA gyrase (E. coli DNA gyrase): twice as potent as novobiocin; MBC (B. subtilis): 43 ± 3 nM (≈ 0.0286 µg/mL); Times less effective than ciprofloxacin (MIC) (B. subtilis): 2.5 times; MBC (B. subtilis; Bacillus subtilis, read-out: MBC): 43 nM (≈ 0.0286 µg/mL); MIC (B. subtilis; Bacillus subtilis, read-out: MIC): 0.026 ± 0.002 µM (≈ 0.0173 µg/mL); MBC (S. aureus): 33 ± 2 nM (≈ 0.0219 µg/mL); MIC (S. aureus): 21 ± 2 nM (≈ 0.014 µg/mL); Times more effective than ciprofloxacin (MIC) (S. aureus): 1.5 times; MBC (S. aureus; Staphylococcus aureus, read-out: MBC): 33 nM (≈ 0.0219 µg/mL); MIC (S. aureus; [6]): 21 nM (≈ 0.014 µg/mL); viability at 96 h, 50 µM [1]: 89%; MIC (C. albicans; C. albicans): 19.50 ± 1 µM (≈ 13 µg/mL); MFC (C. albicans; Candida albicans): 39.2 ± 3 µM (≈ 26.1 µg/mL); MIC (C. albicans; Candida albicans): 19.5 µM (≈ 13 µg/mL); MBC ([2]; Staphylococcus aureus): 4.5 ± 0.2 µM (≈ 2.99 µg/mL); MIC [2, 6]: 2.2 ± 0.1 µM (≈ 1.46 µg/mL); MBC ([3]; Pseudomonas aeruginosa): 6.5 ± 0.25 µM (≈ 4.32 µg/mL); MIC [3, 7]: 4.5 ± 0.2 µM (≈ 2.99 µg/mL); MBC (Gram-positive bacteria): 0.028 to 0.058 µM (≈ 0.0186 to 0.0385 µg/mL); IC50 (DHFR E. Coli): 4.25 ± 0.1 µM; MBC (E. coli; read-out: MBC): 0.077 ± 0.006 µM (≈ 0.0512 µg/mL); MIC (E. coli; read-out: MIC): 0.057 ± 0.004 µM (≈ 0.0379 µg/mL); MIC (A. flavus): 15.60 µM and 15.60 ± 1 µM; MFC (A. flavus; Aspergillus flavus): 31.1 ± 2 µM (≈ 20.7 µg/mL); MIC (A. flavus; Aspergillus flavus): 14.5 to 19.5 µM (≈ 9.64 to 13 µg/mL); MBC [4]: 4.5 to 6.5 µM (≈ 2.99 to 4.32 µg/mL); MIC [4]: 2.2 to 4.5 µM (≈ 1.46 to 2.99 µg/mL); MBC (P. aeruginosa): 78 ± 6 nM (≈ 0.0518 µg/mL); MBC (P. aeruginosa; Pseudomonas aeruginosa, read-out: MBC): 78 nM (≈ 0.0518 µg/mL); MIC (P. aeruginosa; Pseudomonas aeruginosa, read-out: MIC): 0.057 ± 0.004 µM (≈ 0.0379 µg/mL)

Question: With O=C1Nc2ccc(S(=O)(=O)N3CCOCC3)cc2/C1=N/NC(=O)C12CC3CC(CC(C3)C1)C2 [II] as the molecule, how does the IC50 (S. aureus DNA gyrase) read?
Answer: Its IC50 is 19.3 µM.

Question: With CCN(CC)S(=O)(=O)c1ccc2c(c1)C1(C(=O)N2)C(C#N)=COC(c2ccccc2)=C1C(C)=O (stereo not shown) [I] as the molecule, how does the IC50 (S. aureus DNA gyrase) read?
Answer: The IC50 was 18.1 µM.

Question: What does the source list for CCn1cc(C(=O)O)c(=O)c2cc(F)c(N3CCNCC3)cc21 [Norfloxacin, reference compound]?
Answer: MIC (E. coli (ATCC BAA-196)): 1.60 ± 0.10 µM (≈ 0.511 µg/mL); MBC (E. coli (ATCC BAA-196); Escherichia coli): 3.5 ± 0.1 µM (≈ 1.12 µg/mL); MIC (E. coli (ATCC BAA-196); [5]): 1.6 µM (≈ 0.511 µg/mL); MIC [2]: 1.20 ± 0.10 µM (≈ 0.383 µg/mL); MBC ([2]; Staphylococcus aureus): 2.8 ± 0.1 µM (≈ 0.894 µg/mL); MIC [2, 6]: 1.2 µM (≈ 0.383 µg/mL); MIC [3]: 3.20 ± 0.10 µM (≈ 1.02 µg/mL); MBC ([3]; Pseudomonas aeruginosa): 4.7 ± 0.2 µM (≈ 1.5 µg/mL); MIC [3, 7]: 3.2 µM (≈ 1.02 µg/mL); MBC [4]: 2.8 to 4.7 µM (≈ 0.894 to 1.5 µg/mL); MIC [4]: 1.2 to 3.2 µM (≈ 0.383 to 1.02 µg/mL)

Reference: paper PMC11590026, “Synthesis, enzyme inhibition, and docking studies of new schiff bases of disalicylic acid methylene-based derivatives as dual-target antibacterial agents” (Frontiers in Chemistry, 2024)
